This passage reports ΔTm, Cytotoxicity and Resistance factor results from ChEMBL document CHEMBL1133276, “Effect of C2-exo unsaturation on the cytotoxicity and DNA-binding reactivity of pyrrolo[2,1-c][1,4]benzodiazepines” (2000).

The subject of assay [1] is Nucleic Acid. As to the kind of experiment: Change in thermal denaturation temperature determined from calf thymus DNA after incubation at 37 degree celsius for 18 hours. The class given is functional. Particulars: Bos taurus.
The subject of assay [2] is CH1. Briefly: In vitro cytotoxicity of compound was determined against CH1 (cisplatin resistant) cell lines at 37 degree C for 96 hr. The class given is functional, Homo sapiens.
Assay [3] has as its system CH1. Briefly: In vitro cytotoxicity of compound was determined against CH1 cell lines at 37 degree C for 96 hr. The class given is functional, Homo sapiens.
Assay [4] relates to Nucleic Acid. As to the kind of experiment: Change in thermal denaturation temperature determined from calf thymus DNA after incubation at 37 degree celsius for 4 hours. Type of assay: functional. Particulars: Bos taurus.
Assay [5] in a line: Resistance factor of compound was determined from cisplatin resistant CH1 cell lines to that of CH1 cell lines. The class given is functional.
The test system of another assay is SK-OV-3. Briefly: In vitro cytotoxicity of compound was determined against SKOV-3 cell lines at 37 degree C for 96 hr. The class given is functional, Homo sapiens.
For assay [6], the system named is A2780. As to the kind of experiment: In vitro cytotoxicity of compound was determined against A2780 cell lines at 37 degree C for 96 hr. Type of assay: functional, Homo sapiens.
Assay [7] relates to A2780. Briefly: In vitro cytotoxicity of compound was determined against A2780 cell lines (cisplatin resistant) at 37 degree C for 96 hr. The class given is functional, Homo sapiens.
Assay [8] in a line: Resistance factor of compound was determined from cisplatin resistant A2780 cell lines to that of A2780 cell lines. The class given is functional.
In assay [9] the test system is Nucleic Acid. Briefly: Change in thermal denaturation temperature determined from calf thymus DNA after incubation at 37 degree celsius for 0 hours. Type of assay: functional. Particulars: Bos taurus.

For `C/C=C1/C[C@H]2C=Nc3cc(OC)c(OC)cc3C(=O)N2C1`, the figures for the shift in melting temperature (ΔTm) with Nucleic Acid [1], in the assay on Nucleic Acid [4] and in the assay with Nucleic Acid [9] were 1.86 °C, 1.47 °C and 0.84 °C, respectively. Also, the Cytotoxicity is 0.056 µM with CH1 [2]; 0.035 µM in the assay with CH1 [3]; 0.135 µM with SK-OV-3; 0.071 µM with A2780 [6]; 0.14 µM in the assay with A2780 [7]. Further, the results for the Resistance factor in [5] and in [8] were 1.6 and 1.9, respectively.
`C/C=C1/C[C@H]2C=Nc3cc(O)c(OC)cc3C(=O)N2C1`: in the assay on CH1 [3], the Cytotoxicity was 0.00013 µM.
Turning to `C=C1C[C@H]2C=Nc3cc(OC)c(OC)cc3C(=O)N2C1`, the ΔTm was 2.38 °C with Nucleic Acid [1], 1.95 °C with Nucleic Acid [4] and 1.46 °C with Nucleic Acid [9]. The Cytotoxicity in the assay with CH1 [2] worked out at 0.084 µM; in the assay with CH1 [3] it was 0.066 µM; with SK-OV-3, 0.39 µM; in the assay on A2780 [6] it was 0.15 µM; with A2780 [7], 0.36 µM. Further, the Resistance factor is given as 1.3 in [5] and 2.4 in assay [8].
Take `COc1cc2c(cc1OCc1ccccc1)N=C[C@@H]1CCCN1C2=O`: the values for the ΔTm with Nucleic Acid [1], in the assay with Nucleic Acid [4] and with Nucleic Acid [9] were 0.4 °C, 0.4 °C and 0.2 °C, respectively. Moreover, the Cytotoxicity with CH1 [2] amounted to 0.145 µM; in the assay with CH1 [3], 0.145 µM; in the assay with SK-OV-3 it was 0.46 µM; in the assay with A2780 [6] it was 0.17 µM; with A2780 [7], 0.48 µM. The Resistance factor turned out to be 1 in assay [5] and 2.8 in assay [8].
On to `COc1cc2c(cc1OC)C(=O)N1CCC[C@H]1C=N2`, for which the ΔTm was 0.57 °C in the assay on Nucleic Acid [1], 0.43 °C in the assay on Nucleic Acid [4] and 0.24 °C with Nucleic Acid [9]. The Cytotoxicity in the assay with CH1 [2] was 0.11 µM; with CH1 [3], 0.082 µM; in the assay with SK-OV-3, 1.7 µM; in the assay on A2780 [6], 0.064 µM; with A2780 [7] it was 0.155 µM. The figures for the Resistance factor in [5] and in assay [8] were 1.3 and 2.4, respectively.
As for `C/C=C1/C[C@H]2C=Nc3cc(OCc4ccccc4)c(OC)cc3C(=O)N2C1`, the ΔTm in the assay with Nucleic Acid [1] worked out at 2.34 °C; in the assay on Nucleic Acid [4], 1.65 °C; with Nucleic Acid [9], 0.92 °C. The Cytotoxicity with CH1 [2] was found to be 0.031 µM; in the assay on CH1 [3] it was 0.031 µM; with SK-OV-3, 0.081 µM; in the assay with A2780 [6], 0.034 µM; with A2780 [7], 0.066 µM. In addition, the Resistance factor in assay [5] was 1; in [8] it was 1.9.
With `C=C1C[C@H]2C=Nc3cc(OCc4ccccc4)c(OC)cc3C(=O)N2C1`, the ΔTm in the assay with Nucleic Acid [1] worked out at 1.33 °C; with Nucleic Acid [4], 1.22 °C; in the assay on Nucleic Acid [9], 1.01 °C. Besides, the Cytotoxicity in the assay on CH1 [2] was 0.082 µM; in the assay on CH1 [3] it was 0.017 µM; in the assay on SK-OV-3, 0.35 µM; with A2780 [6] it was 0.029 µM; in the assay with A2780 [7], 0.2 µM. Further, the Resistance factor in assay [5] came out at 4.8; in assay [8] it was 6.9.
